{"source": "patent US12662451B2", "about": "“Chemical compounds and uses thereof” (GLAXOSMITHKLINE INTELLECTUAL PROPERTY (NO.4) LIMITED, priority 2023, dated 2026)", "key": {"[1]": {"test_system": "SW48 human colorectal cancer cells (MSI-H cancer cells)", "assay": "SW48 cell viability, CellTiter-Glo, 120 hours (Example B)", "conditions": "Homo sapiens, SW48, 120 h, read-out: SW48 pCC50, SW48 cell viability, 120 hours incubation (converted); Table 2"}, "[2]": {"molecular_target": "T1, recombinant full-length WRN protein (1-1432) (Homo sapiens, UniProt Q14191)", "T1 construct": "recombinant full-length WRN protein (1-1432)", "T1 sequence (Q14191 whole entry)": "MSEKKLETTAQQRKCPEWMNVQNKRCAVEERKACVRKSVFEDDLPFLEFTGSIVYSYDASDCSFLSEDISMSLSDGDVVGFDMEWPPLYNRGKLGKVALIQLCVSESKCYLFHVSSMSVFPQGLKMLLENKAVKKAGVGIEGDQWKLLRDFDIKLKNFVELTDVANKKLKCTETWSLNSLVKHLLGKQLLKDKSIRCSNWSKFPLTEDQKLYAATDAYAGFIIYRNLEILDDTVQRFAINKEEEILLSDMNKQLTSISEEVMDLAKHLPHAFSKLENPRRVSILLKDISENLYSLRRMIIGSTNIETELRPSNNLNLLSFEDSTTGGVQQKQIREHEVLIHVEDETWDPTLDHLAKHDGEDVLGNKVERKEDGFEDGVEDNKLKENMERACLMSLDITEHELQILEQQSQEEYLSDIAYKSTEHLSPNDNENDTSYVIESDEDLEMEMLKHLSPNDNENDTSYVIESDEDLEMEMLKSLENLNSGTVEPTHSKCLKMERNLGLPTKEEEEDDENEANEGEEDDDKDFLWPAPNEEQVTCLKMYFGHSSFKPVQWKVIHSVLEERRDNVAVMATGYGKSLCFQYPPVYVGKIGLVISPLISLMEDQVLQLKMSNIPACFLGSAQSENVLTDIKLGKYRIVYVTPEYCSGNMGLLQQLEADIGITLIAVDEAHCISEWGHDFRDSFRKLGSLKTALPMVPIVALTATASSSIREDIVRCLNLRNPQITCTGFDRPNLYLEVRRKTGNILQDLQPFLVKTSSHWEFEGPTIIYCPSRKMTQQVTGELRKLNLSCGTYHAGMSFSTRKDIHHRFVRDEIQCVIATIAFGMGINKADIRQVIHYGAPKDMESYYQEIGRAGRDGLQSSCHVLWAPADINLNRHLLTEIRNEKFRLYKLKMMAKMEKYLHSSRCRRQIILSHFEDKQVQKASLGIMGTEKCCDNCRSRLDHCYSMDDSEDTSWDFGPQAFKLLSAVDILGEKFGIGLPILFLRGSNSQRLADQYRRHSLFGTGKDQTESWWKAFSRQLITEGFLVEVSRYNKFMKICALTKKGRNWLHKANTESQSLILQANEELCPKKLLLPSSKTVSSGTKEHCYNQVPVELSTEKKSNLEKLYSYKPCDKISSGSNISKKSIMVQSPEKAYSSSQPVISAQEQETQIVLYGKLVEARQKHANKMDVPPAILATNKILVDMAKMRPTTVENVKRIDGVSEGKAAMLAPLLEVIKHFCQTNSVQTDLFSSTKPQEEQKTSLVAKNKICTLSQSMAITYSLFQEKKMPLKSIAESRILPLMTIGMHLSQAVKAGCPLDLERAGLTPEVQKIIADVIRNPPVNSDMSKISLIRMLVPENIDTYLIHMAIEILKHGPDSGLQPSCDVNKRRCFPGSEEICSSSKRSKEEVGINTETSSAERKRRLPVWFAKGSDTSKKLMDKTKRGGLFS", "assay": "WRN unwinding activity, fluorogenic 384-well assay (Example A)", "assay_type": "biochemical", "conditions": "WRN unwinding activity, 4 hr; Table 2; read-out: 4 hr UNW pIC50 (converted)", "summary_of_the_method": "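Read-out is end-point unwinding of a fluorophore/quencher duplex (ex 525, em 598 nm) after 60 min with 200 μM ATP and 12 nM DNA (2× stocks), EDTA stop. Compound first sat 4 h with 200 pM WRN (2× stock) in pH 8.0 Tris buffer; four-parameter fit gives pIC50.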"}}, "note": "Where a name gives a salt, the structure may show the parent alone."}
{"smiles": "O=C(O)[C@@H]1[C@@H](c2ccc(-c3cccc4c3COC4)cc2)CCC[C@H]1C(=O)Nc1ccc(C(F)(F)F)cc1F", "note": "[Example 15, (1R,2S,6R)-2-(4-(1,3-dihydroisobenzofuran-4-yl)phenyl)-6-((2-fluoro-4-(trifluoromethyl)phenyl)carbamoyl)cyclohexane-1-carboxylic acid]", "values": [{"measurement": "CC50", "setting": "[1]", "result": 20, "unit": "µM"}, {"measurement": "IC50", "setting": "[2]", "result": 0.158, "unit": "µM"}]}
{"smiles": "Cc1nc2ccc(S(=O)(=O)N(C)c3ccc([C@H]4CCC[C@@H](C(=O)Nc5ccc(C(F)(F)F)cc5F)[C@@H]4C(=O)O)cc3)cc2n1C", "note": "[Example 131, (1R,2R,6S)-2-((2-fluoro-4-(trifluoromethyl)phenyl)carbamoyl)-6-(4-((N,1,2-trimethyl-1H-benzo[d]imidazole)-6-sulfonamido)phenyl)cyclohexane-1-carboxylic acid]", "values": [{"measurement": "CC50", "setting": "[1]", "result": 3.98, "unit": "µM"}, {"measurement": "IC50", "setting": "[2]", "result": 0.00631, "unit": "µM"}]}
{"smiles": "O=C(O)[C@@H]1[C@@H](c2ccc(-c3ccoc3)cc2)CCC[C@H]1C(=O)Nc1ccc(C(F)(F)F)cc1F", "note": "[Example 10, (1R,2R,6S)-2-((2-fluoro-4-(trifluoromethyl)phenyl)carbamoyl)-6-(4-(furan-3-yl)phenyl) cyclohexane-1-carboxylic acid]", "values": [{"measurement": "CC50", "setting": "[1]", "result": 12.6, "unit": "µM"}, {"measurement": "IC50", "setting": "[2]", "result": 0.1, "unit": "µM"}]}
{"smiles": "CN1CCC[C@@H](c2cccc(S(=O)(=O)N(C)c3ccc([C@H]4CCC[C@@H](COc5ccc(C(F)(F)F)cc5)[C@@H]4C(=O)O)cc3)c2)C1", "note": "(single isomer, unassigned) [Example 218, rel-(1R,2S,6R)-2-(4-((N-methyl-3-((R*)-1-methylpiperidin-3-yl)phenyl)sulfonamido)phenyl)-6-((4-(trifluoromethyl)phenoxy)methyl)cyclohexane-1-carboxylic acid]", "values": [{"measurement": "CC50", "setting": "[1]", "result": 15.8, "unit": "µM"}, {"measurement": "IC50", "setting": "[2]", "result": 0.0398, "unit": "µM"}]}
{"smiles": "[2H]C([2H])([2H])O[C@@H]1C[C@H](C(=O)Nc2ccc(C(F)(F)F)cc2F)[C@@H](C(=O)O)[C@H](c2ccc(N(C)S(=O)(=O)c3ccc4c(c3)nc(C)n4C)cc2)C1", "note": "(relative stereo) [Example 149, rel-(1R,2R,4R,6S)-2-((2-fluoro-4-(trifluoromethyl)phenyl)carbamoyl)-4-methoxy-6-(4-((N,1,2-trimethyl-1H-benzo[d]imidazole)-5-sulfonamido)phenyl)cyclohexane-1-carboxylic acid]", "values": [{"measurement": "CC50", "setting": "[1]", "result": 0.2, "unit": "µM"}, {"measurement": "IC50", "setting": "[2]", "result": 0.00158, "unit": "µM"}]}
{"smiles": "Cc1nc2cc(S(=O)(=O)N(C)c3ccc([C@H]4CCC[C@@H](COc5ccc(C(F)(F)F)cc5)[C@@H]4C(=O)O)cc3)ccc2n1CCN", "note": "[Example 216, (1R,2S,6R)-2-(4-((1-(2-aminoethyl)-N,2-dimethyl-1H-benzo[d]imidazole)-5-sulfonamido)phenyl)-6-((4-(trifluoromethyl)phenoxy)methyl)cyclohexane-1-carboxylic acid, 0.41 formic acid salt]", "values": [{"measurement": "CC50", "setting": "[1]", "result": 12.6, "unit": "µM"}, {"measurement": "IC50", "setting": "[2]", "result": 0.00501, "unit": "µM"}]}
{"smiles": "Cc1nc2cc(S(=O)(=O)N(C)c3ccc([C@@H]4C[C@H](OC[C@@H]5CCOC5)C[C@H](C(=O)Nc5ccc(C(F)(F)F)cc5F)[C@H]4C(=O)O)cc3)ccc2n1C", "note": "(stereo in doubt) [Example 319, (1R*,2R*,4R*,6S*)-2-((2-fluoro-4-(trifluoromethyl)phenyl)carbamoyl)-4-(((R)-tetrahydrofuran-3-yl)methoxy)-6-(4-((N,1,2-trimethyl-1H-benzo[d]imidazole)-5-sulfonamido)phenyl)cyclohexane-1-carboxylic acid]", "values": [{"measurement": "CC50", "setting": "[1]", "result": 12.6, "unit": "µM"}, {"measurement": "IC50", "setting": "[2]", "result": 0.316, "unit": "µM"}]}
{"smiles": "O=C(O)[C@@H]1[C@@H](c2ccc([C@H]3CCC(F)(F)C3)cc2)CCC[C@H]1C(=O)Nc1ccc(C(F)(F)F)cc1F", "note": "(racemic) [Example 64, 1:1 Mixture of (1R,2S,6R)-2-(4-((S)-3,3-difluorocyclopentyl)phenyl)-6-((2-fluoro-4-(trifluoromethyl)phenyl)carbamoyl)cyclohexane-1-carboxylic acid AND (1R,2S,6R)-2-(4-((R)-3,3-difluorocyclopentyl)phenyl)-6-((2-fluoro-4-(trifluoromethyl)phenyl)carbamoyl)cyclohexane-1-carboxylic acid]", "values": [{"measurement": "CC50", "setting": "[1]", "result": 15.8, "unit": "µM"}, {"measurement": "IC50", "setting": "[2]", "result": 0.0251, "unit": "µM"}]}
{"smiles": "O=C(O)[C@@H]1[C@@H](c2ccc(-c3cncnc3)cc2)CCC[C@H]1C(=O)Nc1ccc(C(F)(F)F)cc1F", "note": "[Example 6, (1R,2R,6S)-2-((2-fluoro-4-(trifluoromethyl)phenyl)carbamoyl)-6-(4-(pyrimidin-5-yl)phenyl)cyclohexane-1-carboxylic acid]", "values": [{"measurement": "CC50", "setting": "[1]", "result": 10, "unit": "µM"}, {"measurement": "IC50", "setting": "[2]", "result": 0.00631, "unit": "µM"}]}
{"smiles": "CN1CCc2c(cccc2S(=O)(=O)N(C)c2ccc([C@H]3CCC[C@@H](C(=O)Nc4ccc(C(F)(F)F)cc4F)[C@@H]3C(=O)O)cc2)C1", "note": "[Example 114, (1R,2S,6R)-2-(4-((N,2-dimethyl-1,2,3,4-tetrahydroisoquinoline)-5-sulfonamido)phenyl)-6-((2-fluoro-4-(trifluoromethyl)phenyl)carbamoyl)cyclohexane-1-carboxylic acid]", "values": [{"measurement": "CC50", "setting": "[1]", "result": 2.51, "unit": "µM"}, {"measurement": "IC50", "setting": "[2]", "result": 0.00794, "unit": "µM"}]}
{"smiles": "CC(=O)N(C)[C@@H]1C[C@H](C(=O)Nc2ccc(C(F)(F)F)cc2F)[C@@H](C(=O)O)[C@H](c2ccc(N(C)S(=O)(=O)c3ccc4c(c3)nc(C)n4C)cc2)C1", "note": "(stereo in doubt) [Example 291, rel-(1R,2R,4R,6S)-2-((2-fluoro-4-(trifluoromethyl)phenyl)carbamoyl)-4-(N-methylacetamido)-6-(4-((N,1,2-trimethyl-1H-benzo[d]imidazole)-5-sulfonamido)phenyl)cyclohexane-1-carboxylic acid]", "values": [{"measurement": "CC50", "setting": "[1]", "result": 12.6, "unit": "µM"}, {"measurement": "IC50", "setting": "[2]", "result": 0.0316, "unit": "µM"}]}
{"smiles": "Cc1nc2cc(S(=O)(=O)N(C)c3ccc([C@@H]4C[C@H](C#N)C[C@H](C(=O)Nc5ccc(C(F)(F)F)cc5F)[C@H]4C(=O)O)cc3)ccc2n1C", "note": "(single isomer, unassigned) [Example 286]", "values": [{"measurement": "CC50", "setting": "[1]", "result": 12.6, "unit": "µM"}, {"measurement": "IC50", "setting": "[2]", "result": 0.1, "unit": "µM"}]}
{"smiles": "Cc1nnc(-c2ccc([C@H]3CCC[C@@H](C(=O)Nc4ccc(C(F)(F)F)cc4F)[C@@H]3C(=O)O)cc2)s1", "note": "[Example 41, (1R,2R,6S)-2-((2-fluoro-4-(trifluoromethyl)phenyl)carbamoyl)-6-(4-(5-methyl-1,3,4-thiadiazol-2-yl)phenyl)cyclohexane-1-carboxylic acid]", "values": [{"measurement": "CC50", "setting": "[1]", "result": 3.98, "unit": "µM"}, {"measurement": "IC50", "setting": "[2]", "result": 0.00501, "unit": "µM"}]}
{"smiles": "O=C(O)[C@@H]1[C@@H](c2ccc(-c3nsc4ccccc34)cc2)CCC[C@H]1C(=O)Nc1ccc(C(F)(F)F)cc1F", "note": "[Example 36, (1R,2S,6R)-2-(4-(benzo[d]isothiazol-3-yl)phenyl)-6-((2-fluoro-4-(trifluoromethyl)phenyl)carbamoyl)cyclohe xane-1-carboxylic acid]", "values": [{"measurement": "CC50", "setting": "[1]", "result": 5.01, "unit": "µM"}, {"measurement": "IC50", "setting": "[2]", "result": 0.631, "unit": "µM"}]}
{"smiles": "N#Cc1ncc(-c2ccc([C@H]3CCC[C@@H](C(=O)Nc4ccc(C(F)(F)F)cc4F)[C@@H]3C(=O)O)cc2)cn1", "note": "[Example 54, (1R,2S,6R)-2-(4-(2-cyanopyrimidin-5-yl)phenyl)-6-((2-fluoro-4-(trifluoromethyl)phenyl)carbamoyl)cyclohexane-1-carboxylic acid]", "values": [{"measurement": "CC50", "setting": "[1]", "result": 7.94, "unit": "µM"}, {"measurement": "IC50", "setting": "[2]", "result": 0.00501, "unit": "µM"}]}
{"smiles": "Cc1nc2cc(S(=O)(=O)N(C)c3cnc([C@H]4CCC[C@@H](C(=O)Nc5ccc(C(F)(F)F)cc5F)[C@@H]4C(=O)O)cn3)ccc2n1C", "note": "(single isomer, unassigned) [Example 164]", "values": [{"measurement": "CC50", "setting": "[1]", "result": 2.51, "unit": "µM"}, {"measurement": "IC50", "setting": "[2]", "result": 0.00126, "unit": "µM"}]}
{"smiles": "Cc1nc2cc(S(=O)(=O)N(C)c3ccc([C@@H]4CCC[C@H](C(=O)Nc5ccc(C(F)(F)F)cc5F)[C@H]4C(=O)O)cc3F)ccc2n1C", "note": "(single isomer, unassigned) [Example 369]", "values": [{"measurement": "CC50", "setting": "[1]", "result": 12.6, "unit": "µM"}, {"measurement": "IC50", "setting": "[2]", "result": 0.631, "unit": "µM"}]}
{"smiles": "O=C(O)[C@@H]1[C@@H](c2ccc(C3=CCS(=O)(=O)C3)cc2)CCC[C@H]1C(=O)Nc1ccc(C(F)(F)F)cc1F", "note": "[Example 58, (1R,2S,6R)-2-(4-(1,1-dioxido-2,5-dihydrothiophen-3-yl)phenyl)-6-((2-fluoro-4-(trifluoromethyl)phenyl)carbamoyl) cyclohexane-1-carboxylic acid]", "values": [{"measurement": "CC50", "setting": "[1]", "result": 15.8, "unit": "µM"}, {"measurement": "IC50", "setting": "[2]", "result": 0.0316, "unit": "µM"}]}
{"smiles": "Cc1nc2cc(S(=O)(=O)N(C)c3ccc([C@@H]4C[C@H](N5CCC[C@@H](F)C5)C[C@H](C(=O)Nc5ccc(C(F)(F)F)cc5F)[C@H]4C(=O)O)cc3)ccc2n1C", "note": "(stereo in doubt) [Example 345, rel-(1R*,2R*,4R*,6S*)-2-((2-fluoro-4-(trifluoromethyl)phenyl)carbamoyl)-4-((R)-3-fluoropiperidin-1-yl)-6-(4-((N,1,2-trimethyl-1H-benzo[d]imidazole)-5-sulfonamido)phenyl)cyclohexane-1-carboxylic acid]", "values": [{"measurement": "CC50", "setting": "[1]", "result": 12.6, "unit": "µM"}, {"measurement": "IC50", "setting": "[2]", "result": 0.398, "unit": "µM"}]}
{"smiles": "Cc1nc2cc(S(=O)(=O)N(C)c3ccc([C@@H]4C[C@H](OCC5CC6CCC(C5)O6)C[C@H](C(=O)Nc5ccc(C(F)(F)F)cc5F)[C@H]4C(=O)O)cc3)ccc2n1C", "note": "(single isomer, unassigned) [Example 359]", "values": [{"measurement": "CC50", "setting": "[1]", "result": 12.6, "unit": "µM"}, {"measurement": "IC50", "setting": "[2]", "result": 1.58, "unit": "µM"}]}
{"smiles": "Cc1nc2cc(S(=O)(=O)N(C)c3ccc([C@H]4CCC[C@@H](C(=O)NC56CC(C7CCCC7)(C5)C6)[C@@H]4C(=O)O)cc3)ccc2n1C", "note": "[Example 187, (1R,2R,6S)-2-((3-cyclopentylbicyclo[1.1.1]pentan-1-yl)carbamoyl)-6-(4-((N,1,2-trimethyl-1H-benzo[d]imidazole)-5-sulfonamido)phenyl)cyclohexane-1-carboxylic acid, formic acid salt]", "values": [{"measurement": "CC50", "setting": "[1]", "result": 3.98, "unit": "µM"}, {"measurement": "IC50", "setting": "[2]", "result": 0.00631, "unit": "µM"}]}
{"smiles": "O=C(O)[C@@H]1[C@@H](c2ccc(-c3cccc4cnccc34)cc2)CCC[C@H]1C(=O)Nc1ccc(C(F)(F)F)cc1F", "note": "[Example 2, (1R,2R,6S)-2-((2-fluoro-4-(trifluoromethyl)phenyl)carbamoyl)-6-(4-(isoquinolin-5-yl)phenyl)cyclohexane-1-carboxylic acid]", "values": [{"measurement": "CC50", "setting": "[1]", "result": 12.6, "unit": "µM"}, {"measurement": "IC50", "setting": "[2]", "result": 1.26, "unit": "µM"}]}
